Experimental data reported in ChEMBL document CHEMBL1201862, “PubChem BioAssay data set” (2004).
Active and inactive are the calls of the source.

What was measured:
[1] = target: Intestinal-type alkaline phosphatase (Mus musculus, UniProt P24822); assay: PubChem AID 488874; format: functional
[2] = target: T1, Intestinal-type alkaline phosphatase (Homo sapiens, UniProt P09923); assay: human intestinal alkaline phosphatase activators, dose response, biochemical, luminescence, uHTS hits (AID 463120); format: functional
[3] = target: T1, Intestinal-type alkaline phosphatase; assay: human IAP activators, dose response, biochemical, luminescent, uHTS hits, set 2 (AID 488817); format: functional;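 note: potency of activators that raise enzyme activity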
[4] = target: T2, Alkaline phosphatase, tissue-nonspecific isozyme (Homo sapiens, UniProt P05186); assay: TNAP enzyme activators, dose response, selectivity assay for human IAP activator project, biochemical, TNAP isozyme, human IAP uHTS hits (AID 488886); format: functional;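 note: potency of compounds raising TNAP activity as a selectivity check on IAP activators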
T2 sequence (P05186 whole entry): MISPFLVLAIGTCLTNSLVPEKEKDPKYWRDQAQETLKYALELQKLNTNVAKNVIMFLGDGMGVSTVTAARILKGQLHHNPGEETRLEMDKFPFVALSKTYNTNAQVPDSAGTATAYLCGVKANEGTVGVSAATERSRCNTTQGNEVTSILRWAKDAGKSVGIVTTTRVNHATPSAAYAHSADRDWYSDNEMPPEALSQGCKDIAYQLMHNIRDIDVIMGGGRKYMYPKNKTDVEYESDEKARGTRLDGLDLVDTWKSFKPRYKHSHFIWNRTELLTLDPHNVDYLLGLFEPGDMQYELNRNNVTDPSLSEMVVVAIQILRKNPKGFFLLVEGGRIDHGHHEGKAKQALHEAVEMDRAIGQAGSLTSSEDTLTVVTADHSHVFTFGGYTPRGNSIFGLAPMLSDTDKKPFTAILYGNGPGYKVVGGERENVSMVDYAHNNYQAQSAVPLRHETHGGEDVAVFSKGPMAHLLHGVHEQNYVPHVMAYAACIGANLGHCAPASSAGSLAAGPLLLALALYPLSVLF

[5] = test system: H9c2; assay: cells; format: functional, cell-based; details: Rattus norvegicus, H9c2, Myocardium;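 note: confirmatory concentration-response retest of ultra-high-throughput screening hits for modulation of myocardial damage; cell death induced by hydrogen peroxide oxidative stress; compound pretreatment for 60 min then peroxide exposure for 2 h; potency is for protecting the cells against peroxide damage rather than for killing them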

T1 sequence (P09923 whole entry): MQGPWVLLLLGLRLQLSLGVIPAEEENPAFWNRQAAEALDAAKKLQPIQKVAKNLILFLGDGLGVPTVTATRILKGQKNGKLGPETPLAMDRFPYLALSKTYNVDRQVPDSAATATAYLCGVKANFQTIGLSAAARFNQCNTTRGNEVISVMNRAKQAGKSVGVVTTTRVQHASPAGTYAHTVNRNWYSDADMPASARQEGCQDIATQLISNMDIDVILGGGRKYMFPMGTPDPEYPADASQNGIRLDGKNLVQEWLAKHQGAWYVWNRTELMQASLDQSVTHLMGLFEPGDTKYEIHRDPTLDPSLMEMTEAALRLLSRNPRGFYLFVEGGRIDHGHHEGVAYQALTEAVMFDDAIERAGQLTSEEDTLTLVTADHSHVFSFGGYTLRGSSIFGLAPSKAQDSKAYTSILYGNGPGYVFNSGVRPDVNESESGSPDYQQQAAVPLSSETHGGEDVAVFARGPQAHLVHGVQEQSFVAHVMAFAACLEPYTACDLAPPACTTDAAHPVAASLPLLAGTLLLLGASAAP
Chain of Intestinal-type alkaline phosphatase (Mus musculus, UniProt P24822) (P24822 whole entry): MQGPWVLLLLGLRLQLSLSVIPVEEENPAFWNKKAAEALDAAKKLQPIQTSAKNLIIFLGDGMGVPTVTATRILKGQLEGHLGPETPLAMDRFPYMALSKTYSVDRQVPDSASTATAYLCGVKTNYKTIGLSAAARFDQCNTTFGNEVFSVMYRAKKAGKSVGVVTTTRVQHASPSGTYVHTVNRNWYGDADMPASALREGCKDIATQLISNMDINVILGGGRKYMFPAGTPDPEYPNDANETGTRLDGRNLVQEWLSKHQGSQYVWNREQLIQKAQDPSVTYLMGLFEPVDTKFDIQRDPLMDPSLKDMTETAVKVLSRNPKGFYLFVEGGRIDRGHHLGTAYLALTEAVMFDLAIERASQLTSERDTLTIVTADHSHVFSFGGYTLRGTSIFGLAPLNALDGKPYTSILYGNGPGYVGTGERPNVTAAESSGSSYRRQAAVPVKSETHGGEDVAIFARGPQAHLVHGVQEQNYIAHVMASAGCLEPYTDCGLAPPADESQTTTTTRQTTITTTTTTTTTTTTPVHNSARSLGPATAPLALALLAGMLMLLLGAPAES

Compound: CCOCCCNC(=O)CCC(=O)NNc1nc2ccccc2c2nc(-c3ccccc3)nn12
- IC50 [1]: 29.6 µM (active)
- EC50 [2]: 12.6 µM (active)
- EC50 [3]: 15.2 µM (active)
- EC50 [4]: 17.7 µM (active)
- IC50 [5]: > 79 µM (inactive)
